Results on 6 cell lines are retold here after the supplement of paper PMC10307832.

Common to all, as to experiment: relative viability (nuclei count vs DMSO), 5 days (fraction); higher = more cells survive
Compound in experiment [1]: CCN1C(=O)C2=CC(=C(N=C2N(C1=O)C3CC3)N)C(=O)N + CC(=O)Nc1cccc(-n2c(=O)n(C3CC3)c(=O)c3c(Nc4ccc(I)cc4F)n(C)c(=O)c(C)c32)c1 [Trametinib] (partner 0.02 µM)
In a few lines: (§1)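 Lung cancer cell lines in 1536-well plates were dosed by pin tool the day after seeding, either with one drug alone or with a fixed anchor-drug dose plus five library-drug doses (not always all listed) in √10 steps. After 5 days, cells were fixed and their nuclei stained in one step (final 0.05% Triton X-100, 1% formaldehyde, 1 ug/ml Hoechst), then counted on 4× images. Relative viability is the nuclei count in treated wells divided by that in vehicle wells. Values are medians of duplicate plates.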

Compound in experiment [2]: CCN1C(=O)C2=CC(=C(N=C2N(C1=O)C3CC3)N)C(=O)N + CC(=O)c1c(C)c2cnc(Nc3ccc(N4CCNCC4)cn3)nc2n(C2CCCC2)c1=O [Palbociclib] (partner 0.5 µM)
In a few lines: as §1

Compound in experiment [3]: CCN1C(=O)C2=CC(=C(N=C2N(C1=O)C3CC3)N)C(=O)N + CCNC(=O)c1noc(-c2cc(C(C)C)c(O)cc2O)c1-c1ccc(CN2CCOCC2)cc1 [Luminespib] (partner 0.01 µM)
In a few lines:
as §1

Compound in experiment [4]: CCN1C(=O)C2=CC(=C(N=C2N(C1=O)C3CC3)N)C(=O)N + CS(=O)(=O)CCNCc1ccc(-c2ccc3ncnc(Nc4ccc(OCc5cccc(F)c5)c(Cl)c4)c3c2)o1 [Lapatinib] (partner 2 µM)
In a few lines:
as §1

Compound in experiment [5]: CCN1C(=O)C2=CC(=C(N=C2N(C1=O)C3CC3)N)C(=O)N + CS(=O)(=O)N1CCN(Cc2cc3nc(-c4cccc5[nH]ncc45)nc(N4CCOCC4)c3s2)CC1 [Pictilisib] (partner 1 µM)
An outline of the steps:
as §1

For PC-14, the relative viability is 0.743 in experiment [1] (first compound 0.253 µM); 0.721 in experiment [1] (first compound 0.8 µM); 0.768 in experiment [1] (first compound 2.53 µM); 0.715 in experiment [1] (first compound 8 µM); 0.555 in experiment [2] (first compound 0.253 µM); 0.525 in experiment [2] (first compound 0.8 µM). The relative viability was 0.526 in experiment [2] (first compound 2.53 µM); 0.514 in experiment [2] (first compound 8 µM); 0.144 in experiment [3] (first compound 0.253 µM); 0.159 in experiment [3] (first compound 0.8 µM); 0.158 in experiment [3] (first compound 2.53 µM); 0.119 in experiment [3] (first compound 8 µM). Also, the relative viability in experiment [4] (first compound 0.253 µM) came out at 0.293; in experiment [4] (first compound 0.8 µM), 0.287; in experiment [4] (first compound 2.53 µM) it was 0.303; in experiment [4] (first compound 8 µM), 0.315; in experiment [5] (first compound 0.253 µM) it was 0.73; in experiment [5] (first compound 0.8 µM) it was 0.58. For the same cell line, the relative viability in experiment [5] (first compound 2.53 µM) is 0.758; in experiment [5] (first compound 8 µM), 0.879.
Consider RERF-LC-KJ, for which the relative viability in experiment [1] (first compound 0.253 µM) was 0.697; in experiment [1] (first compound 0.8 µM), 0.793; in experiment [1] (first compound 2.53 µM), 0.751; in experiment [1] (first compound 8 µM), 0.847; in experiment [2] (first compound 0.253 µM) it was 1.09; in experiment [2] (first compound 0.8 µM) it was 1.1. The relative viability in experiment [2] (first compound 2.53 µM) was found to be 1.09; in experiment [2] (first compound 8 µM), 1.13; in experiment [3] (first compound 0.253 µM), 1.27; in experiment [3] (first compound 0.8 µM), 1.17; in experiment [3] (first compound 2.53 µM), 1.22; in experiment [3] (first compound 8 µM) it was 1.14. Also, the relative viability in experiment [4] (first compound 0.253 µM) came out at 0.897; in experiment [4] (first compound 0.8 µM), 0.882; in experiment [4] (first compound 2.53 µM), 0.909; in experiment [4] (first compound 8 µM), 0.86; in experiment [5] (first compound 0.253 µM), 0.488; in experiment [5] (first compound 0.8 µM) it was 0.455. For the same cell line, the figures for the relative viability in experiment [5] (first compound 2.53 µM) and in experiment [5] (first compound 8 µM) were 0.508 and 0.55, respectively.
As for SK-LU-1, the relative viability in experiment [1] (first compound 0.253 µM) turned out to be 0.482; in experiment [1] (first compound 0.8 µM), 0.555; in experiment [1] (first compound 2.53 µM), 0.516; in experiment [1] (first compound 8 µM), 0.489; in experiment [2] (first compound 0.253 µM), 0.389; in experiment [2] (first compound 0.8 µM) it was 0.45. The relative viability was 0.371 in experiment [2] (first compound 2.53 µM); 0.412 in experiment [2] (first compound 8 µM); 0.177 in experiment [3] (first compound 0.253 µM); 0.201 in experiment [3] (first compound 0.8 µM); 0.194 in experiment [3] (first compound 2.53 µM); 0.215 in experiment [3] (first compound 8 µM). Also, the relative viability in experiment [4] (first compound 0.253 µM) worked out at 0.879; in experiment [4] (first compound 0.8 µM), 0.879; in experiment [4] (first compound 2.53 µM), 0.897; in experiment [4] (first compound 8 µM), 1.04; in experiment [5] (first compound 0.253 µM), 0.559; in experiment [5] (first compound 0.8 µM), 0.581. Further, the relative viability in experiment [5] (first compound 2.53 µM) was 0.717; in experiment [5] (first compound 8 µM), 0.614.
Regarding SK-MES-1, the relative viability in experiment [1] (first compound 0.253 µM) is 0.625; in experiment [1] (first compound 0.8 µM), 0.533; in experiment [1] (first compound 2.53 µM), 0.557; in experiment [1] (first compound 8 µM), 0.517; in experiment [2] (first compound 0.253 µM) it was 0.362; in experiment [2] (first compound 0.8 µM), 0.285. Besides, the relative viability was determined as 0.324 in experiment [2] (first compound 2.53 µM); 0.282 in experiment [2] (first compound 8 µM); 0.774 in experiment [3] (first compound 0.253 µM); 0.591 in experiment [3] (first compound 0.8 µM); 0.793 in experiment [3] (first compound 2.53 µM); 0.945 in experiment [3] (first compound 8 µM). Moreover, the relative viability in experiment [4] (first compound 0.253 µM) was found to be 0.478; in experiment [4] (first compound 0.8 µM), 0.485; in experiment [4] (first compound 2.53 µM), 0.451; in experiment [4] (first compound 8 µM) it was 0.492; in experiment [5] (first compound 0.253 µM), 0.358; in experiment [5] (first compound 0.8 µM), 0.403. In addition, the relative viability in experiment [5] (first compound 2.53 µM) came to 0.323; in experiment [5] (first compound 8 µM), 0.37.
SW 1573: the relative viability is 0.548 in experiment [1] (first compound 0.253 µM); 0.601 in experiment [1] (first compound 0.8 µM); 0.599 in experiment [1] (first compound 2.53 µM); 0.52 in experiment [1] (first compound 8 µM); 0.39 in experiment [2] (first compound 0.253 µM); 0.384 in experiment [2] (first compound 0.8 µM). Besides, the relative viability worked out at 0.399 in experiment [2] (first compound 2.53 µM); 0.451 in experiment [2] (first compound 8 µM); 0.191 in experiment [3] (first compound 0.253 µM); 0.377 in experiment [3] (first compound 0.8 µM); 0.303 in experiment [3] (first compound 2.53 µM); 0.427 in experiment [3] (first compound 8 µM). Moreover, the relative viability came out at 1.03 in experiment [4] (first compound 0.253 µM); 1.02 in experiment [4] (first compound 0.8 µM); 1.23 in experiment [4] (first compound 2.53 µM); 0.985 in experiment [4] (first compound 8 µM); 0.51 in experiment [5] (first compound 0.253 µM); 0.519 in experiment [5] (first compound 0.8 µM). Also, the relative viability stood at 0.464 in experiment [5] (first compound 2.53 µM) and 0.551 in experiment [5] (first compound 8 µM).
Turning to UMC-11, the relative viability was found to be 0.798 in experiment [1] (first compound 0.253 µM); 0.701 in experiment [1] (first compound 0.8 µM); 0.695 in experiment [1] (first compound 2.53 µM); 0.636 in experiment [1] (first compound 8 µM); 0.333 in experiment [2] (first compound 0.253 µM); 0.336 in experiment [2] (first compound 0.8 µM). In addition, the relative viability in experiment [2] (first compound 2.53 µM) is 0.336; in experiment [2] (first compound 8 µM), 0.279; in experiment [3] (first compound 0.253 µM), 0.914; in experiment [3] (first compound 0.8 µM), 1.02; in experiment [3] (first compound 2.53 µM) it was 1.08; in experiment [3] (first compound 8 µM), 1.17. Further, the relative viability in experiment [4] (first compound 0.253 µM) was found to be 1.12; in experiment [4] (first compound 0.8 µM), 0.909; in experiment [4] (first compound 2.53 µM), 1; in experiment [4] (first compound 8 µM), 0.9; in experiment [5] (first compound 0.253 µM) it was 0.891; in experiment [5] (first compound 0.8 µM), 0.865. The results for the relative viability in experiment [5] (first compound 2.53 µM) and in experiment [5] (first compound 8 µM) were 0.767 and 0.853, respectively.
